According to patent EP4001293A1, “TETRAPEPTIDE AND ITS USE” (Justus-Liebig-Universität Gießen, priority 2020, dated 2022):
Peptide text beside a SMILES is read from it.

Tests used:
Format in all cases: cell-based
Claudin-1 = assay: Stimulation of Claudin-1 formation, fluorescence measurement; conditions: 93RS2 Sertoli-Zellen; relative to control sample without tetrapeptide
Description: (§1) Die besondere Wirksamkeit von Tetrapeptid Seq ID 1 umfasst weiterhin die Stimulierung der Bildung von Claudin-1 und Claudin-5 in Zellen. Claudine sind kleine Transmembranproteine, die in vielen Organismen, Menschen und Tieren vorkommen und in ihrem Aufbau sehr ähnlich sind. Sie haben entscheidende Funktionen zur Bildung einer funktionierenden Barriere in verschiedenen Epithelien. Es gibt zahlreiche […] von Claudinen, die weitgehend ubiquitär exprimiert sind und Grundfunktionen für die Bildung der Tight-Junction-Bänder übernehmen. Caudin-1 und Claudin-5 sind spezialisierte Claudine, die an der Blut-Hoden-Schranke der männlichen Gonaden exprimiert werden. Ihre Beteiligung an der Ausbildung und Aufrechterhaltung der Tight Junctions an der Blut-Hoden-Schranke schützt die männlichen Keimzellen vor Angriffen des eigenen Immunsystems. Somit gehen Defekte der Blut-Hoden-Schranke immer mit Infertilität einher. […] Experimentell erfolgt die Quantifizierung der Stimulation der Bildung von Claudin-1 und/oder Claudin-5 in der Zelle durch Fluoreszenzmessung. Der quantitative Messwert zur Beschreibung der Stimulation der Bildung von Claudin-1 und/oder Claudin-5 in 93RS2 Sertoli-Zellen ist die Fluoreszenzintensität der mit dem Tetrapeptid behandelten Zellen bei mikroskopischer Betrachtung im direkten Vergleich mit einer gleichbehandelten Kontrollprobe ohne Tetrapeptid.

SAOS-2-Zellen [1] = assay: Stimulation of ossification, Alizarin red staining
Description: Die Ausführungsbeispiele zeigen, dass die Tetrapeptide Seq ID 1-6 wenigstens die gleiche Wirksamkeit aufweisen wie Testosteron und die Testosteronanaloga. Dabei weisen sie als Tetrapeptide jedoch nicht die hormonbedingten Nebenwirkungen auf, da sie nur am membrangebundenen Androgenrezeptor ZIP-9 binden und nicht im Zellkern am klassischen Androgenrezeptor (AR). Eine besonders positive Wirkung kommt dem erfindungsgemäßen Tetrapeptid 1 Seq ID 1 zu. Die Wirksamkeit der erfindungsgemäßen Tetrapeptide Seq ID 1-6 zur Behandlung der Osteoporose, myodegenerativen Erkrankungen (zum Beispiel Muskeldystrophie, insbesondere jedoch Muskelatrophie) sowie der männlichen Infertilität wird experimentell in Zellkultur in einem charakteristischen Zellmodell gezeigt. Zur Verabreichung an Menschen und Tiere wird mindestens ein erfindungsgemäße Tetrapeptid als medizinisches Mittel in einer pharmazeutisch akzeptablen Komposition als Arzneimittel formuliert. Das medizinische Mittel wird zur Behandlung der Osteoporose, myodegenerativen Erkrankungen sowie der männlichen Infertilität bei Menschen und Tieren eingesetzt. Es löst dabei keine übermäßige Toxizität, Irritationen oder allergische Reaktionen aus. Bevorzugt wird das medizinische Mittel umfassend mindestens ein erfindungsgemäßes Tetrapeptid Menschen oder Tieren in Form entweder oral, intramuskulär, intraossär, rektal, parenteral, intravenös, subkutan, intracisternal, intravaginal, intraperitoneal, intrathekal, intravasculär, lokal (Puder, Salbe oder Tropfen), in Sprayform oder als Pflaster verabreicht. Dosierungsformen für die örtliche Administration des medizinischen Mittels dieser Erfindung schließen Salben, Puder, Sprays oder Inhalationsmittel ein. Das mindestens eine erfindungsgemäße Tetrapeptid als medizinisches Mittel wird unter sterilen Bedingungen mit einem physiologisch akzeptablen Trägerstoff und möglichen Konservierungsmitteln, Puffern oder Treibmitteln, je nach Bedarf, vermischt. Ein Konservierungsmittel ist eine Chemikalie, die zugesetzt wird, um die Zersetzung zu verhindern. Es hilft, das medizinische Mittel gegen Bakterien- und Pilzbefall oder Abbau durch Enzyme zu schützen, indem es das Wachstum von Bakterien oder Pilzen verhindern und/oder die Zersetzung des Mittels verlangsamt. Bevorzugt wird das medizinische Mittel dieser Erfindung als Lyophilisat hergestellt. Bevorzugt wird das medizinische Mittel dieser Erfindung oral verabreicht. Da das darin enthaltene mindestens eine Tetrapeptid sehr klein ist, wird es von proteolytischen Enzymen nicht so rasch abgebaut und kann seine Wirksamkeit am ZIP-9 Rezeptor sehr selektiv und sehr spezifisch entfalten. Die Tetrapeptide Seq ID 1-6 werden gemäß Verfahren, die der Fachmann kennt, einfach und mit geringen Kosten hergestellt. Sie weisen in lyophilisierter Form eine lange Lagerungsbeständigkeit und hohe Aktivität auf. Die Lagerung ist bei Raumtemperatur möglich. Ein Vorteil ist, dass aufgrund der hohen Spezifität nur geringe Mengen verabreicht werden müssen, um an den ZIP-9 Rezeptor zu binden und dort die positiven Effekte auszulösen. In einem besonderen Ausführungsbeispiel wird das Tetrapeptid Seq ID 1 verkapselt, damit es im Magen-Darm-Trakt nicht abgebaut (säure-hydrolysiert), sondern als Tetrapeptid in den Blutkreislauf aufgenommen wird. Dazu werden z.B. mesoporöse Silicapartikel verwendet, die die Bioverfügbarkeit verlängern. Alternativ werden an das Tetrapeptid Polymere angehängt, wie z.B. Polyethlenglycolgruppen (PEGylierung). […]

[2] = system: Zonula Occludens-1 (ZO-1); assay: Stimulation of ZO-1 expression, fluorescence measurement; conditions: Sertoli-Zellen; Fig. 4B-4D
Description: Experimentell erfolgt die Quantifizierung der Stimulation der Bildung von ZO-1 in 93RS2 Sertoli-Zellen durch quantitative Auswertung der Messung der Expression von ZO-1. Der quantitative Messwert zur Beschreibung der Stimulation der Expression von ZO-1 ist die Häufigkeit (Frequenz), mit der mindestens ein bestimmter Wert ("Wert") der Fluoreszenzintensität gemessen wird. Die Bedeutung der Begriffe "Häufigkeit"/"Frequenz" und "Wert"/"Wert der Fluoreszenzintensität" ist dabei analog der Bedeutung im Zusammenhang mit der Alkalischen Phosphatase und bezieht sich hierbei auf Fig. 4F bzw. Fig. 4G bzw. Fig. 4H bzw. Fig. 4I. Die Häufigkeit des mindestens einen bestimmten Wertes der in den mit dem erfindungsgemäßen Tetrapeptid behandelten Zellen gemessenen Werte im direkten Vergleich mit der Häufigkeit des mindestens einen gleichen Wertes, die in Tetrapeptid-freien aber ansonsten gleich behandelten Kontrollzellen gemessen wird, beträgt ab dem Wert 70 mindestens 120 % der in den gleich behandelten Kontrollzellen gemessenen Häufigkeit ab dem Wert 70.
Die Durchführung des Färbevorganges erfolgt bei allen Proben (Referenz, Vergleichsprobe mit Testosteron und Tetrapeptid) in gleicher Weise, so dass die Farbstärke (erkennbar in der photographischen Darstellung in Fig. 1A und Fig. 1B anhand der Grauwerte in der jeweiligen Abbildung) als Maß für die Stimulierung dient (je dunkler der Grauwert, umso stärker die Stimulation zur Ossifikation). […] Dem Fachmann sind diese Zusammenhänge bekannt, ebenso weiß er wie Untersuchungen der Expression von Enzymen, und somit auch der ALP, quantitativ durchgeführt werden, so dass darauf hier nur allgemein eingegangen werden muss. […] Im Rahmen der vorliegenden Ausführungsbeispiele (Beispielmessungen) wurden alle dem Fachmann bekannten Parameter, beispielsweise Lösungsmittel- und Pufferzusammensetzungen sowie -Konzentrationen, Temperaturen, Geräteeinstellungen (z. B. für die Messung der Fluoreszenzstärke) usw. in geeigneten Grenzen konstant gehalten, so dass die Versuchsergebnisse die beschriebenen quantitativ-vergleichbaren relativen Ergebnisse liefern. […]

[3] = system: Alkalischen Phosphatase (ALP); assay: Expression of alkaline phosphatase, immunofluorescence; conditions: SAOS-2 Osteoblasten; for Expression der Alkalischen Phosphatase (grüne Fluoreszenz): Fig. 2A, 2B
Description: Die Ausführungsbeispiele zeigen, dass die Tetrapeptide Seq ID 1-6 wenigstens die gleiche Wirksamkeit aufweisen wie Testosteron und die Testosteronanaloga. Dabei weisen sie als Tetrapeptide jedoch nicht die hormonbedingten Nebenwirkungen auf, da sie nur am membrangebundenen Androgenrezeptor ZIP-9 binden und nicht im Zellkern am klassischen Androgenrezeptor (AR). Eine besonders positive Wirkung kommt dem erfindungsgemäßen Tetrapeptid 1 Seq ID 1 zu. Die Wirksamkeit der erfindungsgemäßen Tetrapeptide Seq ID 1-6 zur Behandlung der Osteoporose, myodegenerativen Erkrankungen (zum Beispiel Muskeldystrophie, insbesondere jedoch Muskelatrophie) sowie der männlichen Infertilität wird experimentell in Zellkultur in einem charakteristischen Zellmodell gezeigt. Zur Verabreichung an Menschen und Tiere wird mindestens ein erfindungsgemäße Tetrapeptid als medizinisches Mittel in einer pharmazeutisch akzeptablen Komposition als Arzneimittel formuliert. Das medizinische Mittel wird zur Behandlung der Osteoporose, myodegenerativen Erkrankungen sowie der männlichen Infertilität bei Menschen und Tieren eingesetzt. Es löst dabei keine übermäßige Toxizität, Irritationen oder allergische Reaktionen aus. Bevorzugt wird das medizinische Mittel umfassend mindestens ein erfindungsgemäßes Tetrapeptid Menschen oder Tieren in Form entweder oral, intramuskulär, intraossär, rektal, parenteral, intravenös, subkutan, intracisternal, intravaginal, intraperitoneal, intrathekal, intravasculär, lokal (Puder, Salbe oder Tropfen), in Sprayform oder als Pflaster verabreicht. Dosierungsformen für die örtliche Administration des medizinischen Mittels dieser Erfindung schließen Salben, Puder, Sprays oder Inhalationsmittel ein. Das mindestens eine erfindungsgemäße Tetrapeptid als medizinisches Mittel wird unter sterilen Bedingungen mit einem physiologisch akzeptablen Trägerstoff und möglichen Konservierungsmitteln, Puffern oder Treibmitteln, je nach Bedarf, vermischt. Ein Konservierungsmittel ist eine Chemikalie, die zugesetzt wird, um die Zersetzung zu verhindern. […]

[4] = system: Fokalen Adhäsionskinase (FAK); assay: Stimulation/activation of focal adhesion kinase, fluorescence measurement; conditions: L6-Myoblasten
Description: (§2) Die Ausführungsbeispiele zeigen, dass die Tetrapeptide Seq ID 1-6 wenigstens die gleiche Wirksamkeit aufweisen wie Testosteron und die Testosteronanaloga. Dabei weisen sie als Tetrapeptide jedoch nicht die hormonbedingten Nebenwirkungen auf, da sie nur am membrangebundenen Androgenrezeptor ZIP-9 binden und nicht im Zellkern am klassischen Androgenrezeptor (AR). Eine besonders positive Wirkung kommt dem erfindungsgemäßen Tetrapeptid 1 Seq ID 1 zu. Die Wirksamkeit der erfindungsgemäßen Tetrapeptide Seq ID 1-6 zur Behandlung der Osteoporose, myodegenerativen Erkrankungen (zum Beispiel Muskeldystrophie, insbesondere jedoch Muskelatrophie) sowie der männlichen Infertilität wird experimentell in Zellkultur in einem charakteristischen Zellmodell gezeigt. Zur Verabreichung an Menschen und Tiere wird mindestens ein erfindungsgemäße Tetrapeptid als medizinisches Mittel in einer pharmazeutisch akzeptablen Komposition als Arzneimittel formuliert. Das medizinische Mittel wird zur Behandlung der Osteoporose, myodegenerativen Erkrankungen sowie der männlichen Infertilität bei Menschen und Tieren eingesetzt. Es löst dabei keine übermäßige Toxizität, Irritationen oder allergische Reaktionen aus. […]

Claudin-5 = assay: Stimulation of Claudin-5 formation, fluorescence measurement; conditions: 93RS2 Sertoli-Zellen; relative to control sample without tetrapeptide
Description: as §1

Myogenin = assay: Stimulation of myogenin formation, fluorescence measurement; conditions: L6-Myoblasten; relative to control sample without tetrapeptide
Description: as §2

L6-Myoblasten [5] = assay: Formation of myotubes (muscle fibres) from myoblasts; conditions: 9 Stunden Inkubation, Fig. 3B
Description: as §2

L6-Myoblasten [6] = assay: as above; conditions: 9 Stunden Inkubation, Fig. 3B; remark: listed apart in the source
Description: (§3) Zur Verabreichung an Menschen und Tiere wird mindestens ein erfindungsgemäße Tetrapeptid als medizinisches Mittel in einer pharmazeutisch akzeptablen Komposition als Arzneimittel formuliert. […] Bevorzugt wird das medizinische Mittel umfassend mindestens ein erfindungsgemäßes Tetrapeptid Menschen oder Tieren in Form entweder oral, intramuskulär, intraossär, rektal, parenteral, intravenös, subkutan, intracisternal, intravaginal, intraperitoneal, intrathekal, intravasculär, lokal (Puder, Salbe oder Tropfen), in Sprayform oder als Pflaster verabreicht. Dosierungsformen für die örtliche Administration des medizinischen Mittels dieser Erfindung schließen Salben, Puder, Sprays oder Inhalationsmittel ein. Das mindestens eine erfindungsgemäße Tetrapeptid als medizinisches Mittel wird unter sterilen Bedingungen mit einem physiologisch akzeptablen Trägerstoff und möglichen Konservierungsmitteln, Puffern oder Treibmitteln, je nach Bedarf, vermischt. Ein Konservierungsmittel ist eine Chemikalie, die zugesetzt wird, um die Zersetzung zu verhindern. […] Bevorzugt wird das medizinische Mittel dieser Erfindung als Lyophilisat hergestellt. Bevorzugt wird das medizinische Mittel dieser Erfindung oral verabreicht.

[7] = system: Fokalen Adhäsionskinase (FAK); assay: Stimulation/activation of focal adhesion kinase, fluorescence measurement; conditions: L6-Myoblasten; 6 Stunden Inkubation; versus reference sample; Fig. 3A
Description: as §3

SAOS-2-Zellen [8] = assay: Stimulation of ossification, Alizarin red staining; remark: listed apart in the source
Description: as §3

[9] = system: Alkalischen Phosphatase (ALP); assay: Expression of alkaline phosphatase, immunofluorescence; conditions: SAOS-2 Osteoblasten; Fig. 2A, 2B
Description: as §3

CC[C@H](C)[C@H](N)C(=O)N[C@@H](C)C(=O)N1CCC[C@H]1C(=O)NCC(=O)O [Peptid-1, IAPG] (H-IAPG-OH)
Fluoreszenzintensität (Claudin-1) (Claudin-1): wenigstens den dreifachen Wert
Stimulierung der Ossifikation (SAOS-2-Zellen [1]; 4 Tagen Inkubation, Fig. 1A): Stimulierung der Ossifikation
Stimulierung der Ossifikation (SAOS-2-Zellen [1]; 11 Tagen Inkubation, Fig. 1B): Stimulierung der Ossifikation
Farbstärke (Alizarinrot) (SAOS-2-Zellen [1]; relative to equally treated control sample without tetrapeptide): wenigstens den dreifachen Wert
Expression von Zonula occludens-1 (ZO-1) [2]: stimulierenden Wirkung
Expression der Alkalischen Phosphatase (grüne Fluoreszenz) [3]: Abnahme der grünen Fluoreszenz
Häufigkeit (Frequenz) der Fluoreszenzintensität, Expression der ALP ([3]; ab dem Wert 65, % of frequency in tetrapeptide-free control cells): ≤ 50%
grüne Fluoreszenz (FAK) ([4]; 6 Stunden Inkubation, versus reference sample, Fig. 3A): stärkere grüne Fluoreszenz
Fluoreszenzintensität (FAK) ([4]; relative to control sample without tetrapeptide): wenigstens den dreifachen Wert
Fluoreszenzintensität (Claudin-5) (Claudin-5): wenigstens den dreifachen Wert
Fluoreszenzintensität (Myogenin) (Myogenin): wenigstens den dreifachen Wert
Bildung von Myotuben (Muskelfasern) (L6-Myoblasten [5]): Myotuben (= Muskelfasern) gebildet
Bildung von Myotuben (Muskelfasern) (L6-Myoblasten [5]; listed as Tetrapeptid Seq ID 1): die Muselfaserbildung stimuliert

CC(C)[C@H](NC(=O)CN)C(=O)N[C@@H](CO)C(=O)NCC(=O)O [Peptid-2, GVSG] (H-GVSG-OH)
Stimulierung der Ossifikation (SAOS-2-Zellen [1]; 4 Tagen Inkubation, Fig. 1A): Stimulierung der Ossifikation
Stimulierung der Ossifikation (SAOS-2-Zellen [1]; 11 Tagen Inkubation, Fig. 1B): Stimulierung der Ossifikation
Expression von Zonula occludens-1 (ZO-1) [2]: stimulierenden Wirkung
Expression der Alkalischen Phosphatase (grüne Fluoreszenz) [3]: Abnahme der grünen Fluoreszenz

GWG [Peptid-3]
Expression von Zonula occludens-1 (ZO-1) [2]: stimulierenden Wirkung

C[C@]12CC[C@H]3[C@@H](CCC4=CC(=O)CC[C@@]43C)[C@@H]1CC[C@@H]2O [Testosteron]
Bildung von Myotuben (Muskelfasern) (L6-Myoblasten [6]): Myotuben (= Muskelfasern) gebildet
grüne Fluoreszenz (FAK) [7]: stärkere grüne Fluoreszenz
Stimulierung der Ossifikation (SAOS-2-Zellen [8]; 4 Tagen Inkubation, Fig. 1A): Stimulierung der Ossifikation
Stimulierung der Ossifikation (SAOS-2-Zellen [8]; 11 Tagen Inkubation, Fig. 1B): Stimulierung der Ossifikation
Expression der Alkalischen Phosphatase (grüne Fluoreszenz) [9]: Abnahme der grünen Fluoreszenz
